Laboratory results as given in patent US20180028493A1, “INHIBITORS OF INDUCED MMP-1 PRODUCTION” (THE TRUSTEES OF COLUMBIA UNIVERSITY IN THE CITY OF NEW YORK, priority 2015, published 2018).
Several values for one entry are separate records, joined by “and”; a condition that tells them apart may be missing. Identical values can stand only once.

What was measured:
[1] = system: TLR-4 receptor; assay: TLR4 expression in CSE treated SAE cells; type: cell-based; details: SAEC, 5% CSE, 10 uM
[2] = Fluoxetine quantification in lung by chromatography after oral gavage or inhalation; type: in vivo; details: mice; for Concentration in lung sample: peak at retention time 17.08, replicates and average
Excerpt: FIG. 13A. […] Mice were sacrificed, lungs lyophilized and protein homogenate prepared for chromatographic analysis.
FIG. 14A. […] Mice were sacrificed, lungs lyophilized and protein homogenate prepared for chromatographic analysis.
Mice were sacrificed, lungs lyophilized and protein homogenate prepared for chromatographic analysis.

[3] = system: IRAK; assay: Western blot of IRAK phosphorylation in CSE treated SAE cells; type: cell-based
[4] = system: MMP-1; assay: MMP-1 expression in SAECs treated with CSE; type: cell-based
Method: FIG. 5. […] Data is presented as mean+standard error.
FIG. 8. […] SAEC treatment with 5% CSE, 10 nM Fluoxitine, 10 uM Fluoxitine, and combinations of 5% CSE and Fluoxitine. […] Data is presented as mean+standard error.
In the first experiment, SAE cells were treated with 5% CSE, 10 nM Fluoxitine, 10 uM Fluoxitine, and combinations of 5% CSE and Fluoxitine (FIG. 8). […] Data is presented as mean+standard error.

[5] = system: PRAS40, BAD and GSK-3b; assay: Protein array analysis of cells treated with CSE; type: cell-based; details: CSE with Fluoxetine pretreatment vs CSE
Method: FIG. 10. Protein Array Analysis of Cells Treated with CSE compared to Cells Treated with CSE combined with Fluoxetine. […] The lines representing these three transcription factors, along with ERK 1/2, are labeled. Additionally, the lines compressed at the bottom of the figure represent the following transcription factors that were also tested: PC, NC, Stat1, Stat2, Akt (Thr308), Akt (Ser473), AMPKa, S6 Ribosomal Protein, mTOR, HSP27, p70 S6 Kinase, p53, p38, SAPK/JNK, PARP and Caspase-3.

[6] = system: emphysema
Method: FIG. 7A. […] Duloxetine was administered 3 mg/day given once a day.
FIG. 7B. Morphometric analysis of rabbit study groups. […] NS-non-smoke without the duloxetine, NS-D-non-smoke with duloxetine, SM-smoke without the duloxetine, SM-D-smoke with duloxetine.
(§1) Rabbits were stratified into one of four groups (Unexposed, treated with vehicle, Smoke exposed, treated with vehicle, Unexposed, treated with Duloxetine and smoke exposed treated with Duloxetine. Animals are maintained on room air or smoke exposed for 16 weeks and then sacrificed. Lung lavage is taken, lungs are fixed and sectioned and protein homogenate from lungs frozen.

[7] = system: MMP-1
Excerpt: FIG. 6. The expression of MMP-1 protein in BAL from smoke rabbits. […] SM-smoke without the duloxetine, SMD-smoke with duloxetine.
as §1

Row | Concentration in lung sample ([2]; inhalation 10 mg/kg) | Concentration in lung sample ([2]; inhalation 10 mg/kg, mean) [µM] | Levels of Fluoxetine within the lung, inhalation vs oral ([2]; 10 mg/kg) | Concentration in lung sample ([2]; oral gavage 10 mg/kg, 10 mg/kg, mean) [µM] | SMILES | TLR-4 receptor expression [1] | Detection of Fluoxetine in the lung ([2]; 10 mg/kg oral gavage and 10 mg/kg inhaled) | Concentration in lung sample ([2]; oral gavage 10 mg/kg, 10 mg/kg) | Phosphorylation of IRAK (Western blot) [3] | MMP-1 induction by CSE ([4]; SAEC, 5% CSE, 10 nM and 10 uM Fluoxetine, p<0.05) | BAD (protein array) [5] | GSK-3b (protein array) [5] | PRAS40 (protein array) [5] | Mean linear intercept (morphometric analysis) ([6]; SM vs NS, NS-D, SM-D groups, p=0.0495) | Development of emphysema (H&E of lungs) ([6]; smoke exposed rabbits, 3 mg/day once a day) | MMP-1 expression ([4]; SAEC, 5% CSE, 10 uM Duloxetine, p<0.05) | MMP-1 expression ([4]; cell culture system, 10 nM) | MMP-1 expression by ELISA of lung homogenate ([7]; rabbit cigarette smoke model, 20 weeks of smoke, compound in the last four weeks) | Expression of MMP-1 protein in BAL ([7]; smoke exposed rabbits)
1 | 25.81 µM and 26.2 µM and 26.45 µM | 26.16 | Inhalation resulted in higher levels | 3.788 | CNCCC(Oc1ccc(C(F)(F)F)cc1)c1ccccc1 (stereo not drawn) [Fluoxetine] | down regulation of TLR-4 receptor expression | detection of Fluoxetine in the lung of mice | 3.712 µM and 3.673 µM and 3.98 µM | suppressed | MMP-1 induction was attenuated | return to baseline | return to baseline | return to baseline |  |  |  |  |  | 
2 |  |  |  |  | CNCC[C@H](Oc1cccc2ccccc12)c1cccs1 [Duloxetine, (+)-(S)—N-Methyl-3-(naphthalen-1-yloxy)-3-(thiophen-2-yl) propan-1-amine] |  |  |  |  |  |  |  |  | SM group had statistically significant increased mean linear intercept | development of emphysema was blocked | decreased MMP-1 expression | block the MMP-1 expression | block the MMP-1 expression | down regulated the expression of MMP-1 in BAL
